# Laboratory results: PubChem BioAssay AID588780 (Sanford-Burnham Center for Chemical Genomics, 2011)
# The source made the active and inactive calls.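 How the source made its calls: active means compounds whose fitted half-maximal concentration in the cell-protection dose series is at or below a set limit; inactive means the rest.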
# Test system: H9c2 cardiomyocytes, 2-deoxyglucose stress, ATP luminescence, 2 h
# Assay: protection of cardiomyocytes from 2-deoxyglucose injury, dose response, cell-based, 2-deoxyglucose stress, uHTS hits (AID 588780)
row,SMILES,IC50
1,Nc1ccc2c(c1)[nH]c(=O)c1ccccc12,> 79 µM (inactive)
2,Cc1ccc(-c2n[nH]c(=O)c3ccccc23)cc1S(=O)(=O)NC(C)(C)C,> 79 µM (inactive)
3,CCOc1ccc(NC(=O)c2cc3c(=O)n(C)c4ccccc4c3n2C)cc1,11.5 µM
4,Cc1onc(-c2ccccc2)c1C(=O)NC(=S)NNC(=O)c1ccccc1O,37.2 µM (inactive)
5,CCC(=O)N1CCN(c2ccccc2NC(=O)COc2cc(C)ccc2C(C)C)CC1,11.5 µM
6,CCCCN1CC(COCc2ccccc2)Oc2cccc(OCCN3C(=O)[C@@H]4[C@H](C3=O)C3C=C[C@H]4C3)c2S1(=O)=O (stereo not given in full),> 79 µM (inactive)
7,C#CCOc1nc(Nc2cccc([N+](=O)[O-])c2)nc(OCC#C)n1,> 79 µM (inactive)
8,CN(CC(=O)Nc1ccccc1Br)C(=O)CCc1nc2ccccc2c(=O)[nH]1,> 79 µM (inactive)
9,Cc1ccc2nsnc2c1S(=O)(=O)N(Cc1ccco1)Cc1cc2cccc(C)c2[nH]c1=O,25.8 µM
10,COc1cc2ccccc2cc1C(=O)NNC(=O)c1ccccc1O,> 79 µM (inactive)
11,O=C(c1cc(=O)[nH]c2ccccc12)N1CCN(S(=O)(=O)c2ccc(Cl)cc2)CC1,> 79 µM (inactive)
12,COc1ccc(OC)c(Nc2nc(N)nc(-c3cc4ccccc4o3)n2)c1,> 79 µM (inactive)
13,COc1cc(OC)cc(C(=O)Nc2ccc(-c3nc4ccccc4o3)cc2)c1,> 79 µM (inactive)
14,Cc1ccc(-c2n[nH]c(=O)c3ccccc23)cc1N,17.5 µM
15,CC(C)(C)OC(=O)NCCCCCNC(=O)c1[nH]cnc1C(=O)Nc1cc(Br)ccc1F,> 79 µM (inactive)
16,Nc1ncc(-c2ccccc2)n1CC1CCCO1 (stereo not given),> 79 µM (inactive)
17,CCCCc1cc(=O)oc2cc(O)ccc12,> 79 µM (inactive)
18,CCOc1ccc(C(C(=O)NC2CCCC2)N(C(=O)c2snc(C(N)=O)c2N)c2cccc(O)c2)cc1 (stereo not given),> 79 µM (inactive)
19,Cc1nc(N2CCN(c3ccccn3)CC2)c2c(C)c(C(=O)Nc3ccccc3F)sc2n1,10.5 µM
20,CCN(CC)C(=O)CSc1nc2ccccc2c(=O)[nH]1,> 79 µM (inactive)
21,O=C(NCc1n[nH]c(=O)c2ccccc12)C1CC(=O)N(c2ccccc2)C1 (stereo not given),43 µM (inactive)
22,CN(C)Cc1ccc(-c2nc3cccc4c3n2CCNC4=O)cc1,49.2 µM (inactive)
23,CC(Oc1ccc(Br)cc1)C(=O)Nc1nc(-c2ccccn2)cs1 (stereo not given),> 79 µM (inactive)
24,CCOc1ccc(NCc2cc3c(C(C)(C)C)nn(-c4ccccc4)c3[nH]c2=O)cc1,> 79 µM (inactive)

row,SMILES,IC50
1,COC(=O)C1=C(C)N(CCc2ccc(OC)cc2)C(=O)C1,39.4 µM (inactive)
2,CCc1nc2ccccc2c(C(=O)OCc2nc3ccccc3c(=O)[nH]2)c1C,23.1 µM
3,CCCn1c(=O)c(C(=O)NCCc2ccc(Cl)cc2)c(O)c2ccccc21,11 µM
4,Cc1cccc(N=Cc2cc(Br)cc(Cl)c2O)c1,39.6 µM (inactive)
5,O=C(CCc1nc2ccccc2c(=O)[nH]1)NCc1ccco1,> 79 µM (inactive)
6,Cc1cccc(-n2c(SCc3cc(=O)n4ccsc4n3)nc3ccccc3c2=O)c1,14 µM
7,COc1ccc(C(=O)COC(=O)Cn2[nH]c(=O)c3ccccc3c2=O)c(OC)c1,> 79 µM (inactive)
8,C/C(=N\NC(=O)CCCNc1ccc(C)cc1)c1ccccn1,> 79 µM (inactive)
9,c1ccc(-c2oc3ncnc(NCCN4CCOCC4)c3c2-c2ccccc2)cc1,23.2 µM
10,O=C(CN1C(=O)C2CC=CCC2C1=O)Nc1nc(-c2ccc(F)c(F)c2)cs1 (stereo not given),> 79 µM (inactive)
11,CCOC(=O)N1CCN(S(=O)(=O)c2ccc(C(=O)NNc3nc4c(C)cccc4s3)cc2)CC1,> 79 µM (inactive)
12,CC1(C)CC(=O)C2=C(C1)N(CCN1CCOCC1)C1=C(C(=O)CC(C)(C)C1)C2c1ccc(Cl)cc1,31.3 µM (inactive)
13,O=C(CCc1nc2ccccc2c(=O)[nH]1)N1CCN(S(=O)(=O)c2cccc([N+](=O)[O-])c2)CC1,> 79 µM (inactive)
14,COc1ccccc1NC(=O)c1cc(-c2cc(OC)c(OC)c(OC)c2)nc2ccccc12,> 79 µM (inactive)
15,COc1ccc(-n2c(/C=C/c3ccc(O)c(OC)c3)nc3ccccc3c2=O)cc1,> 79 µM (inactive)
16,CC(NC(=O)c1cc2c(=O)n(C)c3ccccc3c2n1C)c1ccc2c(c1)OCCO2 (stereo not given),30.5 µM (inactive)
17,COc1ccc(Cl)cc1-c1nc(-c2ccc(NC(=O)c3cccs3)cc2)no1,> 79 µM (inactive)
18,Cc1ccccc1C1c2[nH]c3ccccc3c2C[C@H]2C(=O)N(c3ccccc3C(=O)NCCCN3CCOCC3)C(=O)N12 (stereo not given in full),27.1 µM
19,CCOC(=O)C1CCN(C(=O)c2ccc3c(=O)n4nc(Nc5ccccc5OC)sc4nc3c2)CC1,19.3 µM
20,Cc1cc(C)n(-c2ccc3cccc(NS(C)(=O)=O)c3n2)n1,> 79 µM (inactive)
21,CN(CC(=O)Nc1ccccc1Br)C(=O)Cn1[nH]c(=O)c2ccccc2c1=O,> 79 µM (inactive)
22,CCn1c(O)c(/C=N/N=C2CCCCC2)c2cc(C3=NNC(=O)CC3)ccc21,12.5 µM
23,COc1ccc(-c2cc(C(=O)Nc3ccccc3N3CCOCC3)c3ccccc3n2)cc1OC,> 79 µM (inactive)
24,Cc1sc2nc(CSCC(=O)N(C)c3ccccc3)[nH]c(=O)c2c1C,29.8 µM

row,SMILES,IC50
1,CC(C)(C)OC(=O)N1CCC[C@H]1c1nnc(SCC(=O)Nc2ccc(Br)cc2)o1,17.7 µM
2,O=C(CN1CCCCC1)Nc1nc(-c2ccc(F)c(F)c2)cs1,70.7 µM (inactive)
3,COc1ccc(CC(=O)N/N=C(\C)c2ccccn2)cc1,26.7 µM
4,CCn1c2ccccc2c2nc3cc(OC)c(OC)cc3nc21,> 79 µM (inactive)
5,COc1ccc(NCc2cc3cc(OC)ccc3[nH]c2=O)cc1,> 79 µM (inactive)
6,O=C(NNC(=O)C(c1ccccc1)c1ccccc1)c1ccccn1,> 79 µM (inactive)
7,O=C(NCC(=O)N(Cc1cccs1)C(C(=O)NC1CCCCC1)c1ccco1)c1ccco1 (stereo not given),15.5 µM
8,COc1cc(-c2nnc(-c3ccc(N4CCOCC4)cc3)o2)cc(OC)c1OC,> 79 µM (inactive)
9,CCC(=O)Oc1cccc(C(=O)Nc2ccc(-c3nnc(-c4ccco4)o3)cc2)c1,> 79 µM (inactive)
10,O=C(OCc1nnc(-c2ccccc2)o1)c1ccc([N+](=O)[O-])s1,24.8 µM
11,COc1cc(-c2cnc3c(NC=O)cc(-c4cccc(NC(C)=O)c4)cn23)cc(OC)c1OC,> 79 µM (inactive)
12,CNc1ccccc(C(=O)/C=C/c2ccccc2OC)c1=O,> 79 µM (inactive)
13,N#Cc1ccccc1S(=O)(=O)N1CCN(c2nc(-c3cccnc3)nc3ccccc23)CC1,> 79 µM (inactive)
14,Cc1c(N=Cc2cc(Br)cc(Br)c2O)cccc1C(=O)O,> 79 µM (inactive)
15,CC(=O)Oc1ccc2c(C)cc(=O)oc2c1,> 79 µM (inactive)
16,CCN(c1ccc(NC(=O)COC(=O)c2ccc([N+](=O)[O-])o2)cc1)C(C)C,> 79 µM (inactive)
17,O=C(CN1CCN(S(=O)(=O)c2ccc(Br)cc2)CC1)c1ccc(O)c(O)c1,19.8 µM
18,O=C(CSc1nnc(-c2ccccc2)n1Cc1ccccc1)NNC(=O)c1ccccc1O,> 79 µM (inactive)
19,COc1ccc(NC(=O)c2cc3c(=O)n(C)c4ccccc4c3n2C)cc1OC,> 79 µM (inactive)
20,COc1ccc(/C=N/NC(=O)c2ccc(COc3cccc4cccnc34)cc2)cc1OC,> 79 µM (inactive)
21,CC(Oc1cccc(Cl)c1)C(=O)Nc1nc(-c2ccccn2)cs1 (stereo not given),44.4 µM (inactive)
22,Cc1cc(C)c2ccc(NN)nc2c1O,> 79 µM (inactive)
23,Cc1nn(-c2ccccc2)c(C)c1/C=N/NC(=O)c1cc(C2CC2)[nH]n1,12.5 µM
24,O=C(CNC(=O)c1nc[nH]c1C(=O)NCC(=O)OCc1ccccc1)OCc1ccccc1,39.5 µM (inactive)

row,SMILES,IC50
1,CCOC(=O)c1cccc(Nc2nc(-c3cccnc3)nc3ccccc23)c1,29.1 µM
2,CC(C)=CCc1ccc(O)c(=O)cc1C(C)C,> 79 µM (inactive)
3,COc1cccc(-c2cc3nc(C)c(C)c(N4CCN(C(=O)c5ccoc5)CC4)n3n2)c1,> 79 µM (inactive)
4,CC(=O)Nc1cccc(-c2cc(NC=O)c3ncc(-c4ccc(C(C)=O)cc4)n3c2)c1,> 79 µM (inactive)
5,COc1ccc(-c2nnc(-c3cc(OC)c(OC)c(OC)c3)o2)cc1OC,14.6 µM
6,Cc1ccc(C(c2c(C)n(C)n(-c3ccccc3)c2=O)c2c(C)n(C)n(-c3ccccc3)c2=O)s1,> 79 µM (inactive)
7,COc1ccc(/C=N/NC(=O)c2cc(OC)c(OC)c(OC)c2)cc1CN1CCc2cc(OC)c(OC)cc2C1C (stereo not given),> 79 µM (inactive)
8,O=C(NC1CCCCC1)C(c1ccc2ncccc2c1)N(Cc1ccco1)C(=O)c1ccc2c(c1)OCCO2 (stereo not given),31.4 µM (inactive)
9,COC(=O)c1cc2c(-c3ccccc3)cc3ccccn3c-2c1C(=O)OC,13 µM
10,N#CCCn1c(SCC(=O)c2c[nH]c3ccccc23)nc2ccccc21,49.4 µM (inactive)
11,CC(C)(C)C(=O)Nc1cccc(-c2nnc(-c3cccc(NC(=O)C(C)(C)C)c3)o2)c1,> 79 µM (inactive)
12,COc1ccc(-c2cc(-c3nnc(COC(=O)C4CC4)o3)c3ccccc3n2)cc1OC,6.83 µM
13,O=c1[nH]c(-c2cccnc2)nc2ccccc12,> 79 µM (inactive)
14,CC(=O)c1cccc(NC(=O)C(C)OC(=O)CCc2nc3ccccc3c(=O)[nH]2)c1 (stereo not given),> 79 µM (inactive)
15,Cc1nnc2ccc(-c3cccc(NC(=O)c4ccc(Cl)nc4)c3)nn12,22.1 µM
16,Cc1ncc(CO)c2cc(C(=O)Nc3ccccc3Cl)c(=Nc3cccc(C(N)=O)c3)oc12,> 79 µM (inactive)
17,CCC(CC)C(=O)Nc1cc(C)c2c(=O)oc3ccccc3c2n1,> 79 µM (inactive)
18,OC1CCN(c2c3c(nc4cc(-c5cccc(F)c5)nn24)CCCC3)CC1,23.6 µM
19,CCOC(=O)Cc1csc(SCc2cc(=O)oc3cc(O)ccc23)n1,51.9 µM (inactive)
20,CCOC(=O)C1=C(CC)Nc2ccccc2N=C1NC(=O)c1ccc(S(=O)(=O)N(C)C)cc1,> 79 µM (inactive)
21,COC(=O)c1ccc(C(NC(=O)OCc2ccccc2)/C(C)=C/[C@@H](C)C(=O)NCc2ccc(OC)c(OC)c2)cc1 (stereo not given in full),22.8 µM
22,CCc1nc2ccc(C(=O)Nc3cccc(OCC(=O)N(C)C)c3)cn2c1N(C)Cc1cc2ccccc2s1,11.8 µM
23,CCC(=O)Nc1cccc(-c2nnc(-c3cccc(NC(=O)CC)c3)o2)c1,> 79 µM (inactive)
